# “Also recorded” adds a separate entry of the source.
# Conditions: Wistar rats
# Source text: 5-6 week old Wistar rats (n=72; 36 female and 36 male) were housed in harmonious social groups (2-3 animals per cage and sex) in a light- and temperature-controlled room with ad libitum access to standard pellet diet and water. Rats were acclimatised for 7 days for male rats and 14 days for female rats, prior to treatment commencement.
# Animals were gavaged for 28 days (n=36; 18 female and 18 male) or 90 days (n=36; 18 female and 18 male). Following necropsy, livers were harvested, flash frozen in liquid nitrogen and stored at −80° C. until further analysis.
# Livers were thawed at room temperature, and a sample of approximately 800 mg was cut out, cleaned from any fat and weighed on a balance accurate to 0.0001 g. Weighed samples were digested in concentrated HNO3 (Nitric acid ≥65%, 84380-2.5L-M, Merck) and H2O2 (Hydrogen peroxide solution, 16911-1L-F, Sigma-Aldrich) at a 5:1 ratio. Samples were digested at room temperature for 24 h and if necessary at 40° C. for another 24 h to allow complete digestion. Following complete digestion samples were diluted 1:4 in UHP water to achieve a final HNO3 concentration of 6-8%. Total elemental analysis for iron was carried out on a Jobin Yvon Horiba Ultima 2C ICP-OES (Instrument SA, Longjumeau, France), equipped with a concentric nebulizer and cyclonic spray chamber. Analysis was by peak profile with a window size of 0.025 nm with 21 increments per profile and an integration time of 0.5 seconds per increment. Analytical line was 259.940 nm. Samples and blanks were analysed with iron standards (0-20 mg/L) prepared in 6-8% HNO3, using a 1000 mg/L Fe ICP solution. Pooled-sample standards (0-20 mg/L) were prepared, using a pool of all final digests, to allow detection of possible matrix effects. Each sample/blank/standard was analysed in triplicates and the average value used for the calculations. The sample induction system (sample tubing, nebuliser and spray chamber) was thoroughly flushed between samples, blanks and standards.
# Statistical analyses were performed in GraphPad Prism 6. One-way ANOVA, followed by Tukey's multiple comparison's test, was used to assess the treatment effect, irrespective of the length of treatment. Two-way ANOVA was used to assess the effects of time (i.e. treatment length), treatment and the time x treatment interactions, followed by Bonferroni's multiple comparisons test. Two-way ANOVA was also used to assess the effect of sex, treatment and the sex x treatment interaction. P values <0.05 were considered significant in all analyses. Data are presented as means±SDs.
smiles,measurement,setting,value
"O=S(=O)([O-])[O-].[Fe+2] [FeSO4, ferrous sulphate]",Accumulation of liver iron over time with repeated oral dosing,"28 days versus 90 days of oral administration, FIG. 1B",iron seems to accumulate over time; also recorded: does accumulate
same,Total iron content in liver samples versus vehicle control group,"daily oral gavage 28 or 90 days, IHAT 28.5 mg iron/kg, FeSO4 20.00 mg iron/kg, FIG. 1A",significantly increased; also recorded: significant difference
